Measured values: US9708336B2, “Metallo-beta-lactamase inhibitors” (priority 2014, dated 2017)
Read-outs that look alike come from different tables or passages of the source.

Experiments:
NDM-1 = NDM-1 (Klebsiella pneumoniae, UniProt C7C422); assay: biochemical; format: biochemical; conditions: NDM-1 enzyme, CCF2-FA substrate; read-out: NDM-1 IC50
[1] = tested on: Serratia marcescens expressing IMP-1 (CL5741); assay: Antibiotic potentiation activity: synergistic concentration (MITC95) with imipenem, OD600 growth; format: cell-based; conditions: Serratia marcescens CL5741 (IMP-1), 95% growth inhibition
In short: (§1)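 Compound activity is tested with and without imipenem, which is present at 4 μg/ml (or 1 μg/ml) in the well. Bacteria in 1.1× CAMHB are incubated 22–24 h at 35 °C; absorbance gives the growth endpoint.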

[2] = tested on: Klebsiella pneumoniae expressing VIM-1 (IHMA599644); assay: as above; format: cell-based; conditions: Klebsiella pneumoniae IHMA599644 (VIM-1), 95% growth inhibition
In short: as §1

[3] = tested on: Escherichia coli expressing NDM-1 (CLB30016); assay: as above; format: cell-based; conditions: (CLB30016, NDM-1), 95% growth inhibition
In short: as §1

IMP-1 = IMP-1 (Serratia marcescens, UniProt P52699); assay: biochemical; format: biochemical; conditions: IMP-1 enzyme, CCF2-FA substrate; read-out: IMP-1 IC50
Chain of IMP-1 (P52699 whole entry, looked up): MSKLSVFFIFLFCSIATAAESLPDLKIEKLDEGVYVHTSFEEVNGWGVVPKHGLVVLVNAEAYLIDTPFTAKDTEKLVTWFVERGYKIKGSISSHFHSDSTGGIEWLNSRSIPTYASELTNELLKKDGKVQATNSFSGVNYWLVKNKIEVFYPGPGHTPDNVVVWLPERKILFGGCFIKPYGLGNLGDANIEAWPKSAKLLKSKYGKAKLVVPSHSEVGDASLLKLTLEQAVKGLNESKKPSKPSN

VIM-1 = VIM-1 (Pseudomonas aeruginosa (strain ATCC 15692 / DSM 22644 / CIP 104116 / JCM 14847 / LMG 12228 / 1C / PRS 101 / PAO1), UniProt A0A0F7KYQ8); assay: Enzyme activity: determination of IC50, fluorescence assay with CCF2-FA substrate (VIM-1); format: biochemical; conditions: CCF2-FA substrate
[4] = VIM-1 enzyme, read-out: VIM-1 IC50

Chain of NDM-1 (C7C422 whole entry, looked up, species assumed): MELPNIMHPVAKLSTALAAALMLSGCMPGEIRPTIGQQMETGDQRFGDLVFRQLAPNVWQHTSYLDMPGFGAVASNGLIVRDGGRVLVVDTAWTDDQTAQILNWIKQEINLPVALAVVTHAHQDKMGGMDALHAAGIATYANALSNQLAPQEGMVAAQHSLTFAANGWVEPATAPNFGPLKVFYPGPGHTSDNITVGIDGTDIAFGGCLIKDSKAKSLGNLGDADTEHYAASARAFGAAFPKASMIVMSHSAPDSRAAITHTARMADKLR

| Compound | IC50 (NDM-1) | Serratia marcescens MITC95 [1] | Klebsiella pneumoniae MITC95 [2] | Escherichia coli MITC95 [3] | IC50 (IMP-1) | IC50 (VIM-1; [4]) | IC50 (VIM-1; VIM-1 IC50, VIM-1 enzyme) |
| --- | --- | --- | --- | --- | --- | --- | --- |
| CC(C)[C@H](N)CN1CCC(c2ccc(-c3cccc(S(N)(=O)=O)c3-c3nnn[nH]3)cc2)CC1 [Example 615, 3-[4-[1-[(2S)-2-amino-3-methyl-butyl]-4-piperidyl]phenyl]-2-(1H-tetrazol-5-yl)benzenesulfonamide] | 0.00984 µM | 1.172 µM | >200 µM | 0.7813 µM | 0.0167 µM | 0.621 µM |  |
| NCCN1CCC(c2ccc(-c3cccc(S(N)(=O)=O)c3-c3nnn[nH]3)cc2)CC1 [Example 616, 3-[4-[1-(2-aminoethyl)-4-piperidyl]phenyl]-2-(1H-tetrazol-5-yl)benzenesulfonamide] | 0.00436 µM | 0.5859 µM | 75 µM | 0.3906 µM | 0.0144 µM | 0.276 µM |  |
| NS(=O)(=O)c1cccc(-c2ccc(C3CCN(CC4CNC4)CC3)cc2)c1-c1nnn[nH]1 [Example 617, 3-[4-[1-(azetidin-3-ylmethyl)-4-piperidyl]phenyl]-2-(1H-tetrazol-5-yl)benzenesulfonamide] | 0.01 µM | 0.2969 µM | 37.5 µM | 0.25 µM | 0.00966 µM | 0.334 µM |  |
| NS(=O)(=O)c1cccc(-c2ccc(C3CCN(CC4CCNC4)CC3)cc2)c1-c1nnn[nH]1 (stereo not drawn) [Example 618, 3-[4-[1-(pyrrolidin-3-ylmethyl)-4-piperidyl]phenyl]-2-(1H-tetrazol-5-yl)benzenesulfonamide] | 0.0117 µM | 0.3906 µM | 75 µM | 0.3906 µM | 0.0161 µM | 0.345 µM |  |
| NS(=O)(=O)c1cccc(-c2ccc(C3CCN(C[C@H]4CNCCO4)CC3)cc2)c1-c1nnn[nH]1 [Example 619] | 0.00823 µM | 0.9766 µM | 150 µM | 0.7813 µM | 0.0108 µM |  | 0.388 µM |
| NS(=O)(=O)c1cccc(-c2ccc(N3CCC(CO)C3)nc2)c1-c1nnn[nH]1 (stereo not drawn) [Example 622, 3-[6-[3-(hydroxymethyl)pyrrolidin-1-yl]-3-pyridyl]-2-(1H-tetrazol-5-yl)benzenesulfonamide] | 0.00439 µM | 6.25 µM | >200 µM | 0.9766 µM | 0.0856 µM | 0.142 µM |  |
| CC(=O)NC1CCN(c2ccc(-c3cccc(S(N)(=O)=O)c3-c3nnn[nH]3)cn2)C1 (stereo not drawn) [Example 623, N-[1-[5-[3-sulfamoyl-2-(1H-tetrazol-5-yl)phenyl]-2-pyridyl]pyrrolidin-3-yl]acetamide] | 0.00794 µM | 6.25 µM | 150 µM | 1.953 µM | 0.0795 µM |  | 0.207 µM |
| CC(C)(O)C1CN(c2ccc(-c3cccc(S(N)(=O)=O)c3-c3nnn[nH]3)cn2)C1 [Example 624, 3-[6-[3-(1-hydroxy-1-methyl-ethyl)azetidin-1-yl]-3-pyridyl]-2-(1H-tetrazol-5-yl)benzenesulfonamide] | 0.0102 µM | 12.5 µM | >200 µM | 7.813 µM | 0.0862 µM | 0.559 µM |  |
| CN(C)C1(C)CN(c2ccc(-c3cccc(S(N)(=O)=O)c3-c3nnn[nH]3)cn2)C1 [Example 625, 3-[6-[3-(dimethylamino)-3-methyl-azetidin-1-yl]-3-pyridyl]-2-(1H-tetrazol-5-yl)benzenesulfonamide] | 0.037 µM | 12.5 µM | >200 µM | 2.344 µM | 0.203 µM | 1.35 µM |  |
